Test results: patent publication US20250115615A1, “Solid Forms of 3-(5-Fluorobenzofuran-3-yl)-4-(5-methyl-5H-[1,3]dioxolo[4,5-f]indol-7-yl)pyrrole-2,5-dione” (Actuate Therapeutics Inc., priority 2017, published 2025)
In brackets after ≈: the same amount, converted by molar mass.

What was measured:
Format in all cases: physicochemical
[1] = Solubility study, 24 hour (HPLC of filtrate, XRPD of remaining solids); conditions: for solubility at 24 h: thermodynamic from solid
Procedure: 9-ING-41, either Form I or Form II, was added to 1 mL of each of 10 different solvents in a vial to make a suspension. The samples were shaken at 2000 rpm in a shaker at room temperature for 24 hours. Mixtures were visually examined to ensure saturation. After 24 hours, 1 mL of suspension was filtered through a 0.45 um nylon micro-filtration membrane into another clear glass vial, respectively. The filtrate was analyzed by HPLC and the remaining solids were analyzed using XRPD.

[2] = Solubility study, 1 hour (Form II added to Form I-saturated filtrates); conditions: for solubility at 24 h / solubility at 1 h: thermodynamic from solid; for solubility at 24 h: Form I suspension shaken 24 hours, room temperature; for Crystal form of remaining solids (XRPD): 1 hour; for solubility at 1 h: excess Form II added to Form I-saturated filtrate, shaken 1 hour
Procedure: Step 1: A sufficient amount of Form I was added to 1 mL solvent (EtOH, Labrasol, Benzyl Benzoate, Benzyl Alcohol, PEG400: Tween80: EtOH (75:8:17) and PEG300:BzOH: Water (65:10:25)) to make a suspension. The samples were shaken at 2000 rpm in a shaker at room temperature for 24 hours.
Step 2: The vials were visually examined to ensure saturation. 1 mL of suspension was filtered at 24 hours through a 0.45 μm nylon micro-filtration membrane into another clean clear glass vial. The filtrate was analyzed by HPLC.
Step 3: Excess Form II was added to the 6 residual filtrates from Step 2 to make a suspension, respectively. The samples were shaken at 2000 rpm in a shaker for 1 hour. The suspensions were filtered after 1 hour through a 0.45 μm nylon micro-filtration membrane into another clean glass vial. The filtrate was analyzed by HPLC and the remaining solids were analyzed using XRPD.

[3] = Solubility in sesame oil (visual estimate); conditions: for visual result: 24 hours, room temperature; for Estimated solubility: sesame oil, stirred 24 hours at room temperature, visual examination
Procedure: The solubility of 9-ING-41 in sesame oil cannot be measured by HPLC. The solubility was estimated by adding weighed portions of Form I (or Form II) into sesame oil. The samples were stirred for 24 hours at room temperature and the vials were visually examined to ensure dissolution.

[4] = Mechanical and pressure effects on crystal form (XRPD)
Procedure: 10.0 mg of Form II was weighed into mortar and ground for 5 min. The remaining solid was collected and analyzed by XRPD. […] 4.50 mg of Form II was compressed into tablet. The tablet was then ground into powder and analyzed by XRPD.

[5] = organic solvent or mixture, PEG400:Tween80:EtOH (75:8:17)

`Cn1cc(C2=C(c3coc4ccc(F)cc34)C(=O)NC2=O)c2cc3c(cc21)OCO3` [Form I] gave a solubility at 24 h ([1]; EtOH, organic solvent or mixture, room temperature) of 1.27 mg/mL (≈ 3.15 mM), a solubility at 24 h ([1]; Labrasol, oil or lipid, room temperature) of 60.5 mg/mL (≈ 150 mM) and a solubility at 24 h ([1]; PEG300:BzOH:Water (65:10:25), aqueous with cosolvent or surfactant or cyclodextrin, PEG300:BzOH:Water (65:10:25), room temperature) of 5.09 mg/mL (≈ 12.6 mM). The solubility at 24 h ([1]; PEG400, organic solvent or mixture, PEG400, room temperature) was 96.5 mg/mL (≈ 239 mM), the solubility at 24 h ([1]; PEG400:Tween80:EtOH (75:8:17), organic solvent or mixture, PEG400:Tween80:EtOH (75:8:17), room temperature) was 72.8 mg/mL (≈ 180 mM) and the Solubility ([1]; Water, room temperature) was “Not detected”. The “Crystal form of remaining solids (XRPD)” value ([1]; all experiments with Form I as starting material) was “remained Form I”, the solubility at 24 h ([1]; benzyl alcohol, organic solvent or mixture, room temperature) was 24 mg/mL (≈ 59.5 mM) and the solubility at 24 h ([1]; benzyl benzoate, organic solvent or mixture, room temperature) was 53 mg/mL (≈ 131 mM). For the same molecule, the solubility at 24 h ([1]; dimethyl acetamide, organic solvent or mixture, room temperature) was > 100 mg/mL, the solubility at 24 h ([2]; aqueous with cosolvent or surfactant or cyclodextrin, PEG300:BzOH:Water (65:10:25)) was 4.96 mg/mL (≈ 12.3 mM) and the solubility at 24 h ([2]; oil or lipid, Labrasol) was 61.4 mg/mL (≈ 152 mM). It also gave a solubility at 24 h ([2]; organic solvent or mixture, Benzyl Alcohol) of 22.3 mg/mL (≈ 55.2 mM), a solubility at 24 h ([2]; organic solvent or mixture, Benzyl Benzoate) of 48.3 mg/mL (≈ 119 mM) and a solubility at 24 h ([2]; organic solvent or mixture, EtOH) of 1.26 mg/mL (≈ 3.11 mM). For the same molecule, the solubility at 24 h [2, 5] was 73.4 mg/mL (≈ 182 mM), the visual result ([3]; 1.00 mg in 3464.12 mg sesame oil) was “Incomplete” and the visual result ([3]; 1.00 mg in 5997.92 mg sesame oil) was “dissolution”. The Estimated solubility [3] was 0.167 to 0.289 µg/mg.

For `Cn1cc(C2=C(c3coc4ccc(F)cc34)C(=O)NC2=O)c2cc3c(cc21)OCO3` [Form II, 3-(5-fluorobenzofuran-3-yl)-4-(5-methyl-5H-[1,3]dioxolo[4,5-f]indol-7-yl) pyrrole-2,5-dione], the Solubility ([1]; Benzyl Alcohol, room temperature) was 30.553 mg/mL (≈ 75.6 mM), the Solubility ([1]; Benzyl Benzoate, room temperature) was 73.265 mg/mL (≈ 181 mM) and the Solubility ([1]; Dimethyl Acetamide, room temperature) was >100 mg/mL. It also gave a Solubility ([1]; EtOH, room temperature) of 0.903 mg/mL (≈ 2.23 mM), a Solubility ([1]; Labrasol, room temperature) of 68.455 mg/mL (≈ 169 mM) and a Solubility ([1]; PEG300:BzOH:Water (65:10:25), room temperature) of 9.410 mg/mL (≈ 23.3 mM). For the same molecule, the Solubility ([1]; PEG400, room temperature) was >100 mg/mL, the Solubility ([1]; PEG400:Tween80:EtOH (75:8:17), room temperature) was 90.418 mg/mL (≈ 224 mM) and the Solubility ([1]; Water, room temperature) was “Not detected”. The “Crystal form of remaining solids (XRPD)” value ([1]; ethanol experiment) was “the remaining solids were a solvate”, the “Crystal form of remaining solids (XRPD)” value ([1]; the other experiments (not water, sesame oil, ethanol)) was “the solids appeared to be Form I” and the “Crystal form of remaining solids (XRPD)” value ([1]; water and sesame oil experiments) was “the remaining solids were Form II”. The “Crystal form of remaining solids (XRPD)” value ([2]; EtOH and PEG300:BzOH:Water (65:10:25)) was “did not change”, the “Crystal form of remaining solids (XRPD)” value ([2]; Labrasol, Benzyl Benzoate, Benzyl Alcohol, PEG400:Tween80:EtOH (75:8:17)) was “rapidly converts to Form I” and the solubility at 1 h ([2]; filtrate saturated with Form I, aqueous with cosolvent or surfactant or cyclodextrin, PEG300:BzOH:Water (65:10:25)) was 10.2 mg/mL (≈ 25.3 mM). The solubility at 1 h ([2]; filtrate saturated with Form I, oil or lipid, Labrasol) was 87 mg/mL (≈ 215 mM), the solubility at 1 h ([2]; filtrate saturated with Form I, organic solvent or mixture, Benzyl Alcohol) was 39.9 mg/mL (≈ 98.6 mM) and the solubility at 1 h ([2]; filtrate saturated with Form I, organic solvent or mixture, Benzyl Benzoate) was 71.8 mg/mL (≈ 178 mM). For the same molecule, the solubility at 1 h ([2]; filtrate saturated with Form I, organic solvent or mixture, EtOH) was 2.55 mg/mL (≈ 6.3 mM), the solubility at 1 h [2, 5] was 106 mg/mL (≈ 262 mM) and the visual result ([3]; 0.90 mg in 1214.50 mg sesame oil) was “dissolution”. For the same molecule, the visual result ([3]; 3.18 mg in 2638.01 mg sesame oil) was “Incomplete”, the Estimated solubility [3] was 0.741 to 1.21 µg/mg and the “Crystal form after compression (XRPD)” value ([4]; 4.50 mg compressed into tablet, then ground into powder) was “no effect on the crystalline form”. The “Crystal form after grinding (XRPD)” value ([4]; 10.0 mg ground in mortar for 5 min) was “remained Form II”.
